Measurements taken from the supplement of paper PMC10307832.

Key:
Assay in all cases: relative viability (nuclei count vs DMSO), 5 days (fraction); higher = more cells survive
HOP-62 = system: HOP-62
In short: (§1)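 Each reported value is a median over duplicate plates. It expresses relative viability: treated-well nuclei count divided by vehicle-well nuclei count. Lung cancer cell lines in 1536-well plates were dosed by pin tool a day after seeding, alone with one drug or with a fixed anchor-drug dose plus five library-drug doses (not always all listed) in √10 steps, and nuclei were counted after 5 days.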

COR-L23 = system: COR-L23
In short: as §1

NCI-H441 = system: NCI-H441
In short: as §1

NCI-H1395 = system: NCI-H1395
In short: as §1

NCI-H1944 = system: NCI-H1944
In short: as §1

NCI-H661 = system: NCI-H661
In short: as §1

NCI-H2085 = system: NCI-H2085
In short: as §1

PC-14 = system: PC-14
In short: as §1

NCI-H2087 = system: NCI-H2087
In short: as §1

NCI-H1793 = system: NCI-H1793
In short: as §1

NCI-H596 = system: NCI-H596
In short: as §1

EPLC-272H = system: EPLC-272H
In short: as §1

HARA = system: HARA
In short: as §1

LXF-289 = system: LXF-289
In short: as §1

NCI-H1437 = system: NCI-H1437
In short: as §1

NCI-H3122 = system: NCI-H3122
In short: as §1

HCC-78 = system: HCC-78
In short: as §1

NCI-H1666 = system: NCI-H1666
In short: as §1

LCLC-97TM1 = system: LCLC-97TM1
In short: as §1

H3255 = system: H3255
In short: as §1

NCI-H2126 = system: NCI-H2126
In short: as §1

Compound: CCNC(=O)c1noc(-c2cc(C(C)C)c(O)cc2O)c1-c1ccc(CN2CCOCC2)cc1 [Luminespib] + Cc1nc(NC(=O)N2CCC[C@H]2C(N)=O)sc1-c1ccnc(C(C)(C)C(F)(F)F)c1 [Alpelisib] (partner 2 µM)
- relative viability (HOP-62; first compound 0.002 µM): 1.17
- relative viability (HOP-62; first compound 0.006325 µM): 0.79
- relative viability (HOP-62; first compound 0.02 µM): 0.603
- relative viability (HOP-62; first compound 0.06325 µM): 0.788
- relative viability (HOP-62; first compound 0.2 µM): 0.927
- relative viability (COR-L23; first compound 0.002 µM): 0.825
- relative viability (COR-L23; first compound 0.006325 µM): 0.685
- relative viability (COR-L23; first compound 0.02 µM): 0.714
- relative viability (COR-L23; first compound 0.06325 µM): 0.0624
- relative viability (COR-L23; first compound 0.2 µM): 0.0515
- relative viability (NCI-H441; first compound 0.002 µM): 0.619
- relative viability (NCI-H441; first compound 0.006325 µM): 0.825
- relative viability (NCI-H441; first compound 0.02 µM): 0.739
- relative viability (NCI-H441; first compound 0.06325 µM): 0.126
- relative viability (NCI-H441; first compound 0.2 µM): 0.148
- relative viability (NCI-H1395; first compound 0.002 µM): 1.37
- relative viability (NCI-H1395; first compound 0.006325 µM): 1.03
- relative viability (NCI-H1395; first compound 0.02 µM): 1.17
- relative viability (NCI-H1395; first compound 0.06325 µM): 0.469
- relative viability (NCI-H1395; first compound 0.2 µM): 0.349
- relative viability (NCI-H1944; first compound 0.002 µM): 0.861
- relative viability (NCI-H1944; first compound 0.006325 µM): 0.826
- relative viability (NCI-H1944; first compound 0.02 µM): 0.539
- relative viability (NCI-H1944; first compound 0.06325 µM): 0.755
- relative viability (NCI-H1944; first compound 0.2 µM): 0.781
- relative viability (NCI-H661; first compound 0.002 µM): 0.628
- relative viability (NCI-H661; first compound 0.006325 µM): 0.608
- relative viability (NCI-H661; first compound 0.02 µM): 0.48
- relative viability (NCI-H661; first compound 0.06325 µM): 0.322
- relative viability (NCI-H661; first compound 0.2 µM): 0.184
- relative viability (NCI-H2085; first compound 0.002 µM): 0.967
- relative viability (NCI-H2085; first compound 0.006325 µM): 0.989
- relative viability (NCI-H2085; first compound 0.02 µM): 0.937
- relative viability (NCI-H2085; first compound 0.06325 µM): 0.542
- relative viability (NCI-H2085; first compound 0.2 µM): 0.397
- relative viability (PC-14; first compound 0.002 µM): 0.942
- relative viability (PC-14; first compound 0.006325 µM): 0.882
- relative viability (PC-14; first compound 0.02 µM): 0.893
- relative viability (PC-14; first compound 0.06325 µM): 0.091
- relative viability (PC-14; first compound 0.2 µM): 0.0816
- relative viability (NCI-H2087; first compound 0.002 µM): 1.2
- relative viability (NCI-H2087; first compound 0.006325 µM): 0.907
- relative viability (NCI-H2087; first compound 0.02 µM): 1.3
- relative viability (NCI-H2087; first compound 0.06325 µM): 0.193
- relative viability (NCI-H2087; first compound 0.2 µM): 0.184
- relative viability (NCI-H1793; first compound 0.002 µM): 0.806
- relative viability (NCI-H1793; first compound 0.006325 µM): 0.536
- relative viability (NCI-H1793; first compound 0.02 µM): 0.319
- relative viability (NCI-H1793; first compound 0.06325 µM): 0.212
- relative viability (NCI-H1793; first compound 0.2 µM): 0.165
- relative viability (NCI-H596; first compound 0.002 µM): 0.517
- relative viability (NCI-H596; first compound 0.006325 µM): 0.45
- relative viability (NCI-H596; first compound 0.06325 µM): 0.44
- relative viability (NCI-H596; first compound 0.2 µM): 0.464
- relative viability (EPLC-272H; first compound 0.006325 µM): 0.811
- relative viability (EPLC-272H; first compound 0.02 µM): 0.674
- relative viability (EPLC-272H; first compound 0.06325 µM): 0.879
- relative viability (EPLC-272H; first compound 0.2 µM): 0.93
- relative viability (HARA; first compound 0.002 µM): 0.835
- relative viability (HARA; first compound 0.006325 µM): 0.676
- relative viability (HARA; first compound 0.02 µM): 0.85
- relative viability (HARA; first compound 0.06325 µM): 0.759
- relative viability (HARA; first compound 0.2 µM): 0.103
- relative viability (LXF-289; first compound 0.002 µM): 1.03
- relative viability (LXF-289; first compound 0.006325 µM): 0.97
- relative viability (LXF-289; first compound 0.02 µM): 1.09
- relative viability (LXF-289; first compound 0.06325 µM): 0.52
- relative viability (LXF-289; first compound 0.2 µM): 0.161
- relative viability (NCI-H1437; first compound 0.002 µM): 0.878
- relative viability (NCI-H1437; first compound 0.006325 µM): 0.919
- relative viability (NCI-H1437; first compound 0.02 µM): 1.16
- relative viability (NCI-H1437; first compound 0.06325 µM): 0.294
- relative viability (NCI-H1437; first compound 0.2 µM): 0.107
- relative viability (NCI-H3122; first compound 0.002 µM): 0.756
- relative viability (NCI-H3122; first compound 0.006325 µM): 0.672
- relative viability (NCI-H3122; first compound 0.02 µM): 0.648
- relative viability (NCI-H3122; first compound 0.06325 µM): 0.179
- relative viability (NCI-H3122; first compound 0.2 µM): 0.149
- relative viability (HCC-78; first compound 0.002 µM): 0.309
- relative viability (HCC-78; first compound 0.06325 µM): 0.585
- relative viability (HCC-78; first compound 0.2 µM): 0.216
- relative viability (NCI-H1666; first compound 0.002 µM): 1
- relative viability (NCI-H1666; first compound 0.006325 µM): 1.01
- relative viability (NCI-H1666; first compound 0.02 µM): 0.985
- relative viability (NCI-H1666; first compound 0.06325 µM): 1.01
- relative viability (NCI-H1666; first compound 0.2 µM): 0.795
- relative viability (LCLC-97TM1; first compound 0.002 µM): 0.286
- relative viability (LCLC-97TM1; first compound 0.006325 µM): 0.254
- relative viability (LCLC-97TM1; first compound 0.02 µM): 0.19
- relative viability (LCLC-97TM1; first compound 0.06325 µM): 0.323
- relative viability (LCLC-97TM1; first compound 0.2 µM): 0.194
- relative viability (H3255; first compound 0.002 µM): 0.775
- relative viability (H3255; first compound 0.006325 µM): 0.636
- relative viability (H3255; first compound 0.02 µM): 0.508
- relative viability (H3255; first compound 0.06325 µM): 0.586
- relative viability (H3255; first compound 0.2 µM): 0.195
- relative viability (NCI-H2126; first compound 0.002 µM): 0.739
- relative viability (NCI-H2126; first compound 0.006325 µM): 0.727
- relative viability (NCI-H2126; first compound 0.02 µM): 0.538
- relative viability (NCI-H2126; first compound 0.06325 µM): 0.748
- relative viability (NCI-H2126; first compound 0.2 µM): 0.838
